Results published in ChEMBL document CHEMBL5107941, “Design and optimisation of a small-molecule TLR2/4 antagonist for anti-tumour therapy” (RSC Med Chem, 2021).

Tests used:
Toll-like receptor 4 = Toll-like receptor 4 (Homo sapiens, UniProt O00206); assay: Antagonist activity at human TLR4 in HEK-Blue hTLR4 cells assessed as inhibition of LPS-induced receptor activation preincubated with LPS followed by compound addition and measured 24 hrs by Quanti-Blue based SEAP reporter gene assay; format: cell-based
Toll-like receptor 2 = Toll-like receptor 2 (Homo sapiens, UniProt O60603); assay: Antagonist activity at human TLR2 in HEK-Blue hTLR2 cells assessed as inhibition of Pam3CSK4-induced receptor activation preincubated with Pam3CSK4 followed by compound addition and measured 24 hrs by Quanti-Blue based SEAP reporter gene assay; format: cell-based
[1] = Cytotoxicity against HEK-Blue hTLR2 cells assessed as lethal dose measured after 24 hrs by CCK-8 assay; format: toxicity, cell-based; details: human, read-out: LD50
[2] = Cytotoxicity against HEK-Blue hTLR4 cells assessed as lethal dose measured after 24 hrs by CCK-8 assay; format: toxicity, cell-based; details: human, read-out: LD50
[3] = Cytotoxicity against mouse RAW264.7 cells assessed as lethal dose measured after 24 hrs by CCK-8 assay; format: toxicity, cell-based; details: read-out: LD50

Sequence of Toll-like receptor 4 (O00206 whole entry): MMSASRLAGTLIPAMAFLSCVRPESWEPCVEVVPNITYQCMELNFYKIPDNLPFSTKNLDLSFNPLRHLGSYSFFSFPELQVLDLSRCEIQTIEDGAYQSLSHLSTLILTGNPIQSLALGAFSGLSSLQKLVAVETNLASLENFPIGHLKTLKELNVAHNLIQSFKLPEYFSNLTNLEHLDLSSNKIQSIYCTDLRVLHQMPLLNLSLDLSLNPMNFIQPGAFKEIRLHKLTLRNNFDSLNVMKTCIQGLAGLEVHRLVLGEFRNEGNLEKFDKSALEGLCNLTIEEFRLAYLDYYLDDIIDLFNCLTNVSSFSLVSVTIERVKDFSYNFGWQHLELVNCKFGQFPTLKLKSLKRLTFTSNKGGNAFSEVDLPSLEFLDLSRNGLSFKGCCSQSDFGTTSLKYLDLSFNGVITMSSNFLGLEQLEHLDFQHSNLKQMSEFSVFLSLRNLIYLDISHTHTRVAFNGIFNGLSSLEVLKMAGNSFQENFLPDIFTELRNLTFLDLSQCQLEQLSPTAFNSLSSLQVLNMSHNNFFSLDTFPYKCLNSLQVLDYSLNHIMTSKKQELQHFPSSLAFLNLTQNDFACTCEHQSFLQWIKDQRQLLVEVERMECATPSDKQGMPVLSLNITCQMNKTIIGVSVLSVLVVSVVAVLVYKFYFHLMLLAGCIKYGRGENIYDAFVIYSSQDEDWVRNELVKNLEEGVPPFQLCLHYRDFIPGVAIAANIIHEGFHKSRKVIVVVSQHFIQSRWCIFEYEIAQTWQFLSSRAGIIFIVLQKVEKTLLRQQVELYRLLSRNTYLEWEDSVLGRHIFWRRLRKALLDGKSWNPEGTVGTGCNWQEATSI
Sequence of Toll-like receptor 2 (O60603 whole entry): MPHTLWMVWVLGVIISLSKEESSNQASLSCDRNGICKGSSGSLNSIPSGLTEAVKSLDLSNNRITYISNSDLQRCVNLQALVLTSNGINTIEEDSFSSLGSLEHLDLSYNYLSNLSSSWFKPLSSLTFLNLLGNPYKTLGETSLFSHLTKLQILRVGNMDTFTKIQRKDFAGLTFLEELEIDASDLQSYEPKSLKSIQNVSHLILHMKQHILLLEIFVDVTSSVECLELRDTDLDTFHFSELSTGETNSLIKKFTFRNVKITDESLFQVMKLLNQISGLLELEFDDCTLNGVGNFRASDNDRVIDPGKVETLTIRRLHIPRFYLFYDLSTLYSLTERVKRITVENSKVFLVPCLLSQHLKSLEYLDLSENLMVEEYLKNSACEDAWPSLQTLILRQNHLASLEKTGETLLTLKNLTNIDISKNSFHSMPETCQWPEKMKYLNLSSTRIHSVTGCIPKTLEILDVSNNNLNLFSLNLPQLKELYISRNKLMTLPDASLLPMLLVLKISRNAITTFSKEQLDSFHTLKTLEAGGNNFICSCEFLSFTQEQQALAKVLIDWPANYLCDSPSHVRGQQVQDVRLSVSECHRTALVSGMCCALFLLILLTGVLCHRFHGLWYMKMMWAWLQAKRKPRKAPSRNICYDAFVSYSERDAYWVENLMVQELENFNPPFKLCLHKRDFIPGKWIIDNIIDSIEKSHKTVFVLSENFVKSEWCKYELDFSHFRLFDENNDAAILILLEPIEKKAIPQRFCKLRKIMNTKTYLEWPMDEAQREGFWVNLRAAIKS

| Compound | IC50 (Toll-like receptor 4) | IC50 (Toll-like receptor 2) | also measured |
| --- | --- | --- | --- |
| O=C(Nc1ccccn1)c1cccc(/C=C/[N+](=O)[O-])c1 | 3.6 µM |  |  |
| CCOC(=O)c1ccc(COc2cccc(/C=C/[N+](=O)[O-])c2)nc1 | 9.2 µM | 12.3 µM |  |
| COc1ccc(COc2cccc(/C=C/[N+](=O)[O-])c2)cc1 | 5.6 µM | 4.4 µM |  |
| O=[N+]([O-])/C=C/c1cccc(Oc2ccccc2)c1 | 4.3 µM | 3.4 µM |  |
| CCCCOc1cccc(/C=C/[N+](=O)[O-])c1 | 5.8 µM | 3.9 µM |  |
| O=[N+]([O-])/C=C/c1cccc(OCc2ccc(F)cc2)c1 | 4.2 µM | 5.5 µM |  |
| C/C(=C\[N+](=O)[O-])c1cccc(Oc2ccccc2)c1 | 6.3 µM |  |  |
| CN(C)c1ccc(/C=C/[N+](=O)[O-])cc1Nc1ccccn1 | 3.7 µM |  |  |
| O=[N+]([O-])/C=C/c1cccc(OCc2ccccn2)c1 | 1.4 µM | 1.1 µM |  |
| O=[N+]([O-])/C=C/c1cccc(Oc2nccs2)c1 | 2.4 µM |  |  |
| O=[N+]([O-])/C=C/c1cccc(-c2ccccn2)c1 | 0.28 µM |  |  |
| O=[N+]([O-])/C=C/c1cccc(Oc2ccccn2)c1 | 1 µM | 1.2 µM |  |
| CCCCOC(=O)c1ccc(COc2cccc(/C=C/[N+](=O)[O-])c2)nc1 | 3.7 µM | 3.1 µM |  |
| O=[N+]([O-])/C=C/c1cccc(Nc2ncccn2)c1 | 2.8 µM | 2.6 µM |  |
| O=[N+]([O-])/C=C/c1ccccc1Oc1ccccc1 |  | 4.4 µM |  |
| CCCOC(=O)c1ccc(COc2cccc(/C=C/[N+](=O)[O-])c2)nc1 | 5.9 µM |  |  |
| O=[N+]([O-])/C=C/c1cccc(OCC2CCCCC2)c1 | 5.9 µM |  |  |
| O=[N+]([O-])/C=C/c1ccc(Oc2ccccc2)cc1 | 6.5 µM |  |  |
| O=[N+]([O-])/C=C/c1cccc(OCc2ccc3ccccc3c2)c1 | 4.4 µM | 5 µM |  |
| O=[N+]([O-])/C=C/c1cccc(Nc2ccccn2)c1 | 0.46 µM |  | CC50 at 24 h [1]: 28 µM; CC50 at 24 h [2]: 28 µM; CC50 at 24 h [3]: 28 µM |
| O=[N+]([O-])/C=C/c1cccc(Oc2ncccn2)c1 | 6.2 µM |  |  |
| O=[N+]([O-])/C=C/c1cccc(OCc2ccc(Cl)cc2)c1 | 4.8 µM | 4.3 µM |  |
| O=[N+]([O-])/C=C/c1cccc(Nc2cccnc2)c1 | 3.1 µM |  |  |
| O=[N+]([O-])/C=C/c1cccc(OCC2CC2)c1 | 2.5 µM | 2.4 µM |  |
| O=[N+]([O-])/C=C/c1cccc(OCc2ccncc2)c1 | 3.9 µM | 3.2 µM |  |
| O=[N+]([O-])/C=C/c1cccc(OCc2ccccc2)c1 | 3.5 µM | 3.3 µM |  |
